What was measured:
TcPINK1 [1] = target: T1, TcPINK1 (Tribolium castaneum, UniProt D6WMX4); assay: In vitro ubiquitin kinase assay with tetraubiquitin (Ub4), pUb immunoblot; type: biochemical; conditions: 100 µM compound; for Inhibition of Ub4 phosphorylation (kinase activity of TcPINK1): 100 µM ATP, 5 min, 30 °C
T1 construct: GST (N, cleaved yes); made in house; host or cells: E. coli
T1 sequence (D6WMX4 121-570 limits assumed): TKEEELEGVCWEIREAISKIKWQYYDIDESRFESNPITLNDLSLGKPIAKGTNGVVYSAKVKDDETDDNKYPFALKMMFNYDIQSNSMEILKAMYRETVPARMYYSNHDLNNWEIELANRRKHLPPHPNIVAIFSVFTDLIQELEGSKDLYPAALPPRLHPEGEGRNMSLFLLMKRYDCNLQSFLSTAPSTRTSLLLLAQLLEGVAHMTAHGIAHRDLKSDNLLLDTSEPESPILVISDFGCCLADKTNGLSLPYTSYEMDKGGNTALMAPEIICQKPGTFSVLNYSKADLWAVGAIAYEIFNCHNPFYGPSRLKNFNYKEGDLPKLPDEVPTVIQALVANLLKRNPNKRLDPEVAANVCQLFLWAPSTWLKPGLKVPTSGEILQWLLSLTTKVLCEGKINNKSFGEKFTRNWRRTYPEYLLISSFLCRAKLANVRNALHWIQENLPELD
Method: Inhibitors were purchased from different sources via Cedarlane Laboratories (catalog # in parenthesis). […] Olaparib was sent by mistake by Adooq Bioscience under cat #P505-15 and identified by LC–MS/MS (MS^1: m/z 435.183; MS^2: m/z 367.157, 281.072). MTK458 was donated by Mitokinin. The racemic PRT-core was custom synthesised by ChemSpace (CSCS02808122161). Kinase activity assays were performed by mixing 5 nM of purified TcPINK1 with 100 µM ATP, 100 µM small molecules from 10 mM stock in DMSO, 200 µM MgCl2 in kinase buffer (final 1% DMSO). The reactions were left in a 30 °C incubator for 5 min for TcPINK1. The reactions were stopped with the addition of Laemmli buffer (2% SDS, 0.1% bromophenol blue (SigmaAldrich), 10% glycerol, 100 mM DTT) final concentration 1X. The entire reaction was loaded onto a 12.5% Tris-Tricine gel (1 M Tris–HCl pH 8.45, 12.5% acrylamide, 0.1% SDS, 0.1% APS, 0.04% TEMED). Protein from a 12.5% polyacrylamide gel were transferred onto an immuno-blot polyvinylidene fluoride (PVDF) membrane (Bio-rad). The membranes were stained with 1% Ponceau and imaged using the ImageQuant LAS 500. The membrane was washed with distilled water and then blocked in 5% BSA diluted in tris buffered saline with 0.1% Tween (TBS-T) for 1 h. The membrane was briefly rinsed and left to incubate with primary antibody anti-pS65-Ub (E2J6T; rabbit mAb, CST, 62802) at a 1:10,000 dilution in TBS-T for 2 h. The membrane was further rinsed three times for 10 min with TBS-T before incubating it with a 1:2000 dilution of secondary antibody, anti-rabbit horseradish peroxidase (HRP)-conjugated antibodies (CST, 7074), in TBS-T. The membrane was rinsed three times for 10 min in TBS followed by the addition of 1 mL ECL solution (BioRad) to the membrane and visualized on the ImageQuant LAS 500. Densitometry was performed using the Fiji software.

human PINK1 (HsPINK1) = target: T2, human PINK1 (HsPINK1) (Homo sapiens, UniProt Q9BXM7); assay: In organello Ub4 kinase assay with mitochondria isolated from CCCP-treated HeLa cells; type: biochemical; conditions: 100 µM compound, 0.1 mM ATP, 15 min, 30 °C
T2 construct: host or cells: HeLa (mitochondria isolated after CCCP)
T2 sequence (Q9BXM7 78-581): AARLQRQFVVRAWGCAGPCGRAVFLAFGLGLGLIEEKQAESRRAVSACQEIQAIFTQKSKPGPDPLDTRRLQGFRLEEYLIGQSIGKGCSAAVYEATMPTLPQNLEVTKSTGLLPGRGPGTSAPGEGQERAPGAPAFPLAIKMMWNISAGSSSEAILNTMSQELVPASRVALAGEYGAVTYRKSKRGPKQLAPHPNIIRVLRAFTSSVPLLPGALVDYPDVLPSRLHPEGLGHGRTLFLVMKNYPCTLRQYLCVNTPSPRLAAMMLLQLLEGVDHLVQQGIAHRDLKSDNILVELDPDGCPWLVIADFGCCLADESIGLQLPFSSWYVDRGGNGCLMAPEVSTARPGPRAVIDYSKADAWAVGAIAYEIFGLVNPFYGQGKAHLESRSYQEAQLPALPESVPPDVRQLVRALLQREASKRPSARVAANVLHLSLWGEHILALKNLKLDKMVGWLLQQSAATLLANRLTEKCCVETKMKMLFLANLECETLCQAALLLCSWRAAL
Method: Wild type (WT) HeLa cells (ATCC #CCL-2) were cultured in DMEM medium supplemented with 10% fetal bovine serum (FBS) at 37 °C and 5% CO2 in a humidified atmosphere. Cells were then treated with 20 µM CCCP for 3 h to induce the accumulation of PINK1. Cells were then washed twice in ice-cold mitochondrial isolation buffer (MIB: 20 mM HEPES, 70 mM sucrose, 220 mM mannitol, pH 7.4, 1 mM EDTA, Complete protease inhibitors), resuspended in MIB and lysed using nitrogen cavitation for 5 min at 500 psi. Cell debris were removed by centrifugation at 500 g for 5 min, and mitochondria were pelleted by centrifugation at 20,000g for 20 min. 7.5 µg of mitochondria was incubated with 3.75 µg Ub4, 5 mM MgCl2, 0.1 mM ATP and 100 µM of each inhibitor for 15 min at 30 °C. The reaction was quenched with Laemlli buffer and loaded on a gel for immunoblotting as described above. The following antibodies were used: anti-pS65-Ub (E2J6T; rabbit mAb, CST, 62802), anti-PINK1 (D8G3; rabbit IgG mAb; CST, 6946), anti-cytochrome C (136F3, recombinant rabbit mAb, CST, 4280), and HRP-conjugated secondary anti-rabbit (CST, 7074).

TcPINK1 [2] = target: T3, TcPINK1 (Tribolium castaneum, UniProt D6WMX4); assay: Kinase Glo luminescence assay (ATP hydrolysis) IC50 determination; type: biochemical; conditions: 1 µM unphosphorylated TcPINK1, 10 µM ATP, 5 min, 30 °C
T3 construct: TcPINK1 (121–570) ampicillin-resistant plasmids were co-expressed in BL21 DE3 E. coli with lambda phosphatase; GST (N, cleaved yes); made in house; host or cells: E. coli BL21 DE3
Method: The Kinase Glo Max (cat #V6071) kit assay was used to measure the ATP consumed in the kinase assays. Unphosphorylated 1 µM TcPINK1 was incubated with 10 µM ATP for 5 min at 30 °C in kinase buffer ([…]). […] The kinase buffer consists of 50 mM Tris–HCl pH 7.5, 300 mM NaCl, 1 mM DTT. 100 µL of kinase at 1 µM was added to 100 µL kinase buffer with inhibitor and left in a 30 °C incubator. After the 5-min mark, 200 µL kinase glo was added to stop the reaction. 100 µL of the sample was then pipetted into 3 wells of an opaque white 96-well plate. The luminescence was measured using the Orion II Microplate Luminometer and obtained using the Simplicity 4.2 program. […] The ATP concentration remaining in the reaction was calculated from the linear equation of the ATP standard curve. This number was then divided by the amount of ATP initially present and multiplied by 100 to obtain the percent inhibition. The values were normalized according to the baseline (no inhibitor). The points plotted on a non-linear regression graph in GraphPad Prism 7. The IC50 value and standard deviation were determined in GraphPad.

[3] = target: FMS-like tyrosine kinase 3 (FLTK3); conditions: read-out: Inhibition of FLTK3; cited from earlier work
[4] = target: T4, TcPINK1 121-570 (TcPINK1-4arom) (Tribolium castaneum, UniProt D6WMX4, F401A/W131A/W142A/Y225A); assay: Isothermal titration calorimetry; type: binding; conditions: AMP-PNP (syringe) into TcPINK1 (cell), 20 °C, one-site model
T4 construct: GST (N, cleaved yes); made in house; host or cells: E. coli BL21 DE3
T4 sequence (D6WMX4 121-570 W131A/W142A/Y225A/F401A): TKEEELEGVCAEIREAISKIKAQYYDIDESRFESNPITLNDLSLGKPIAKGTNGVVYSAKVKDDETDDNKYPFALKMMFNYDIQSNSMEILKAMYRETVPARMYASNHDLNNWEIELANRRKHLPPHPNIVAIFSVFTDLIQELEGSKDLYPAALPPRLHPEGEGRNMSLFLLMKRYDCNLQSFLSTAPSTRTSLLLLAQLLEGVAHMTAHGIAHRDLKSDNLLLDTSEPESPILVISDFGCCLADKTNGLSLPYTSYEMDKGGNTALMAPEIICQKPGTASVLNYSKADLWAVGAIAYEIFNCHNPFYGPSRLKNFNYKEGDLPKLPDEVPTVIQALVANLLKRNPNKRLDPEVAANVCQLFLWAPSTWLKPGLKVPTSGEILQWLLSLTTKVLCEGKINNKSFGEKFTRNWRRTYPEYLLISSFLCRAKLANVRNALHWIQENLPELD
Method: The isothermal titration calorimetry (ITC) assay was performed using the Microcal ITC 200-1 instrument. […] Experiment involved 29 injections of AMP-PNP at 1.5 mM into a sample cell containing 350 μL of 100 µM TcPINK1-4arom at 20 °C. Data was fitted to a one-site model and background was subtracted using the Origin v7 software.

GST-TcPINK1 = target: T5, GST-TcPINK1 (Tribolium castaneum, UniProt D6WMX4); assay: In vitro ubiquitin kinase assay with monoubiquitin, Phos-tag gel; type: biochemical; conditions: 5 µM GST-TcPINK1, 30 µM ubiquitin, 1 mM ATP, 37 °C
T5 construct: made in house; host or cells: E. coli
T5 sequence (D6WMX4 with tags, fused parts or gaps limits assumed): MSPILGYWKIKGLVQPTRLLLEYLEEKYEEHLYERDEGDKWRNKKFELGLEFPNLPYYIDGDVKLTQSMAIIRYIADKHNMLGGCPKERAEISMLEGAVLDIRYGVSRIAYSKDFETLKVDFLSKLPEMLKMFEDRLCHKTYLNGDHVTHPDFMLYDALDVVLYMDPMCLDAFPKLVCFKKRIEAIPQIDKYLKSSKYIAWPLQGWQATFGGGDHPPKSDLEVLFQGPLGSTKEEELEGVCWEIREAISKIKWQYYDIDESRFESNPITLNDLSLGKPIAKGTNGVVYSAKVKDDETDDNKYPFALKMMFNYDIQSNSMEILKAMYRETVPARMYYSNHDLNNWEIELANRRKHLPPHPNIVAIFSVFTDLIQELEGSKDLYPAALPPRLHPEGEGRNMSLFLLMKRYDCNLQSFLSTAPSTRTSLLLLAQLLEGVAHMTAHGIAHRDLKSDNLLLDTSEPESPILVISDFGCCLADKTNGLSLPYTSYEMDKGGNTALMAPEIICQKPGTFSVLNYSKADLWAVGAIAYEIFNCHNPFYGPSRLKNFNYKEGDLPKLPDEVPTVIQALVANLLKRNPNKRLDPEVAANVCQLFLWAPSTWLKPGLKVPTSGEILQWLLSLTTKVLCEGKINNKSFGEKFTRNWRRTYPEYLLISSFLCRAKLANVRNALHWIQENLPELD
Method: (a) Thermal shift assay screen of kinase inhibitors against Tribolium castaneum PINK1 (TcPINK1) with melting temperature increase of 1.5 °C and above. Error bars indicate standard error of ΔTm estimation from melting curves (n = 1). (b) In vitro ubiquitin kinase assays with TcPINK1 and tetraubiquitin (Ub4). Reactions were analyzed by immunoblotting against phospho-ubiquitin (pUb). […] The ponceau staining of the above gel is shown as loading control. (c) In vitro ubiquitin kinase assays with 5 μM GST-TcPINK1 and 30 μM ubiquitin, as well as 1 mM ATP at 37 °C (n = 1). Reactions were analyzed using a phos-tag gel and stained by Coomassie blue. (d) Chemical structures of identified PINK1 inhibitors.

TcPINK1 [5] = target: T6, TcPINK1 (Tribolium castaneum, UniProt D6WMX4); assay: Autophosphorylation (transphosphorylation) assay by intact LC-MS; type: biochemical; conditions: 100 µM compound, 5 µM TcPINK1, 1 mM ATP, 30 °C
T6 sequence (D6WMX4 128-570 limits assumed): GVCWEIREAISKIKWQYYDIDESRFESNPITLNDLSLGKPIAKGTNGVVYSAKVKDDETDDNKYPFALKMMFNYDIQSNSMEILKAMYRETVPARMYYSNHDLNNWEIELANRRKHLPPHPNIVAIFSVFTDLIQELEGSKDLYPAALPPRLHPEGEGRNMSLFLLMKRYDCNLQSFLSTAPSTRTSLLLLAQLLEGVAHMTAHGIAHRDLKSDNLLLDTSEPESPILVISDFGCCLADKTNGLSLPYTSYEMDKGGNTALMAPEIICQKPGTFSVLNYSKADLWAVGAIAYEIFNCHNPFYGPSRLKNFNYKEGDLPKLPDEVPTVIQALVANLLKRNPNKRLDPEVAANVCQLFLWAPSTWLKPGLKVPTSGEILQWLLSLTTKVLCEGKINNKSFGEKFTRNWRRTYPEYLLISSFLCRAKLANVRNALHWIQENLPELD
Method: Intact protein mass spectrometry was used to monitor transphosphorylation of TcPINK1-D337N by ^15N-TcPINK1-WT, as described previously. ^15N-TcPINK1 at 5 μM was combined with 5 μM TcPINK1-D337N, 100 μM compound of interest, 1 mM ATP, 2 mM MgSO4 in 300 mM NaCl, 50 mM Tris–HCl pH 8, 2 mM DTT with 2% DMSO at 30 °C for transphosphorylation reactions with timepoints of 0 s, 30 s, 60 s, and 120 s. Timepoint reactions were stopped by addition of 0.05% TFA and 2% acetonitrile (final concentrations). Reactions in 20 μL were injected on a Dionex C4 Acclaim 1.0/15 mm column followed by a 10 min 4–50% gradient of ACN in 0.1% formic acid with a flow rate of 40 μL/min. The eluate was analyzed on a Bruker Impact II Q-TOF mass spectrometer equipped with an Apollo II ion funnel ESI source. The multiply charged ions were deconvoluted at 10,000 resolution using the maximum entropy method. The signal intensity of the nonphosphorylated and phosphorylated TcPINK1-D337N peaks were estimated using the DataAnalysis software integration tool and used to calculate the fraction phosphorylated.

[6] = target: T7, human PINK1 (PINK1-3HA) in HeLa S3 cells (Homo sapiens, UniProt Q9BXM7); assay: HeLa S3 cells IC50 determination (pUb immunoblot after CCCP); type: cell-based; conditions: HeLa S3 PINK1-3HA, CCCP 4 h
T7 construct: expressed in transfected cells; host or cells: HeLa S3
T7 sequence (Q9BXM7 78-581): as the sequence (Q9BXM7 78-581) above
Method: WT HeLa S3 cells (gift from Richard Youle lab, see ref.[54]) were cultured in DMEM medium with 10% fetal bovine serum and transfected with a pCMV(d1)-PINK1-3HA plasmid for 14 h at 37 °C and 5% CO2 in a humidified atmosphere. Cells were then treated with a range of PRT concentrations alongside 20 µM of CCCP for 4 h. The cells were washed twice in 1 mL ice-cold PBS and lysed with 5× pellet volume of RIPA buffer (20 mM HEPES, 100 mM NaCl, 0.1% Triton-X, 0.2% SDS, PhosStop, cOmplete inhibitor tablet). The samples were left on ice for 30 min then spun at 14,000 rpm for 30 min. The supernatant’s concentration was measured with a BCA protein assay kit (J63283.QA). 10 µg of the sample was loaded on a gel for immunoblotting analysis (see protocol above). The following antibodies were used: anti-pS65-Ub (E2J6T; rabbit mAbCST, 62802), anti-HA (C29F4, rabbit mAb, CST, 3724), anti-TOM40 (E6Q3Z; rabbit mAb, CST, 55959), and HRP-conjugated secondary anti-rabbit (CST, 7074). Densitometry was performed using the Fiji software. Each resulting blot was normalized according to the no inhibitor condition and the highest concentration for the 100% and 0% activity respectively. The data point for the replicates the value of the IC50 and its standard error were plotted in GraphPad Prism 7.

[7] = target: T8, endogenous PINK1 in dopaminergic (DA) neurons (Homo sapiens, UniProt Q9BXM7); assay: Assay with dopaminergic neurons (CCCP, immunoblot); type: cell-based; conditions: 48 h compound then 20 µM CCCP 2 h
T8 construct: host or cells: ReN VM cells differentiated to dopamine neurons
T8 sequence (Q9BXM7 78-581): as above
Method: ReN VM cells (Millipore, SCC008) were cultured in DMEM/F12 (Thermo Fisher Scientific, 11320033), 2% B-27 with antioxidants (Thermo Fisher Scientific, 17504044), 10 U/ml Heparin (Sigma, H3149), and 0.1% Gentamicin (Thermo Fisher Scientific, 15-750-060). For proliferation, media was supplemented with 20 µg/ml fibroblast growth factor (FGF, Peprotech, 100-25) 20 µg/ml epidermal growth factor (EGF, Peprotech, AF-100-15). ReN VM cells were differentiated to dopamine (DA) neurons in media lacking EGF and FGF, supplemented with 1 mM dibutyryl-cAMP (Invivochem, V1846) and 2 ng/ml glial-derived neurotrophic factor (GDNF, Peprotech, 450-10) as described recently[55]. […] DA neurons were subsequently treated with 20 µM CCCP (Sigma, C2759) or DMSO vehicle (Sigma, D4540). Treatment media contained B-27 without antioxidants (Thermo Fisher Scientific, 10889038).
Cells were washed twice with ice-cold PBS and harvested in RIPA-T buffer (50 mM Tris HCl, pH 8.0, 150 mM NaCl, 0.1% SDS, 0.5% Deoxycholate, 1% NP-40) containing a protease inhibitor (Roche Applied Sciences, 11697498001) and phosphatase inhibitor (Sigma, 04906837001) cocktail. Samples were centrifuged (14,000 rpm, 4 °C, 15 min), the supernatant collected, and protein concentration was measured via the colorimetric bicinchoninic acid protein assay (Thermo Fisher Scientific, 23225). Cell lysates were diluted in Laemmli buffer and SDS-PAGE was performed using a Novex™ Wedgewell™ 8–16% Tris–Glycine Mini Protein Gel (Invitrogen, XP08165BOX). Proteins were transferred onto a PVDF membrane (Thermo Fisher Scientific, IPVH00010) in transfer buffer using a Criterion™ Blotter (Bio-Rad). Membranes were washed in TBST (50 mM Tris, pH 7.4, 150 mM NaCl, 0.1% Tween-20) before blocking in 5% dry milk powder (Sysco, 5398953) in TBST on a shaking platform for 1 h. […]

FGR = conditions: cited from earlier work
MLK1 = conditions: cited from earlier work

SMILES: NC(=O)c1cnc(N[C@@H]2CCCC[C@@H]2N)nc1Nc1ccccc1 (racemic) [PRT-core]
- Inhibition of Ub4 phosphorylation (kinase activity of TcPINK1) (TcPINK1 [1]): inhibit the kinase activity of TcPINK1

SMILES: FC(F)(F)c1cc2c(N[C@@H]3CCCc4ccccc43)ncnc2[nH]1 [MTK458]
- Inhibition of human PINK1 Ub4 phosphorylation in organello (human PINK1 (HsPINK1)): does not significantly affect Ub4 phosphorylation

SMILES: Cc1nc(N)sc1-c1ccnc(Nc2ccc(N3CCOCC3)cc2)n1 [CYC116]
- IC50 (TcPINK1 [2]): 65.4 ± 1.1 µM

SMILES: Cc1cccc(Nc2nc(N[C@@H]3CCCC[C@@H]3N)ncc2C(N)=O)c1 [PRT060318]
- Inhibition of Ub4 phosphorylation (kinase activity of TcPINK1) (TcPINK1 [1]): inhibit the kinase activity of TcPINK1
- IC50 (TcPINK1 [2]): 2.5 µM
- Inhibition of human PINK1 Ub4 phosphorylation in organello (human PINK1 (HsPINK1)): most potent inhibitors of human PINK1 kinase activity

SMILES: Cn1cc(-c2nc(N[C@@H]3CCCC[C@@H]3N)c(F)c3c2C(=O)NC3)cn1 [TAK-659]
- Inhibition of Ub4 phosphorylation (kinase activity of TcPINK1) (TcPINK1 [1]): inhibit the kinase activity of TcPINK1
- IC50 (TcPINK1 [2]): 6.4 ± 1 µM
- IC50 [3]: 0.005 µM

SMILES: CNCc1ccc(-c2cc(-c3nc(-c4ccc(S(=O)(=O)C(C)C)cc4)cnc3N)on2)cc1 [VE822]
- TcPINK1 activity compared to control (TcPINK1 [1]; Ub4 substrate): 8%
- Inhibition of human PINK1 Ub4 phosphorylation in organello (human PINK1 (HsPINK1)): does not significantly impact HsPINK1

SMILES: Nc1ncnc2c1ncn2[C@@H]1O[C@H](COP(=O)(O)OP(=O)(O)NP(=O)(O)O)[C@@H](O)[C@H]1O [AMP-PNP]
- Kd [4]: 96 µM

SMILES: Nc1nc(Nc2ccc(S(N)(=O)=O)cc2)nn1C(=O)c1c(F)cccc1F [JNJ-7706621]
- IC50 (TcPINK1 [2]): 27.6 ± 1.1 µM

SMILES: NC(=O)c1cnc(N[C@@H]2CCCC[C@@H]2N)nc1Nc1cccc(-n2nccn2)c1 [PRT062607]
- Inhibition of Ub4 phosphorylation (kinase activity of TcPINK1) (TcPINK1 [1]): inhibits Ub4 phosphorylation most strongly
- Inhibition of monoubiquitin phosphorylation (GST-TcPINK1): inhibits TcPINK1
- TcPINK1 autophosphorylation (TcPINK1 [5]): inhibits TcPINK1 autophosphorylation
- Inhibition of human PINK1 Ub4 phosphorylation in organello (human PINK1 (HsPINK1)): most potent inhibitors of human PINK1 kinase activity
- PINK1 levels (HA blot) [6]: not substantially affected
- Mfn2 ubiquitination [7]: inhibition of Mfn2 ubiquitination
- Potential-dependent cleavage of Opa1 to its short isoform [7]: not affected
- pUb signal [7]: reduction of the pUb signal in a dose-dependent manner
- IC50 (FGR): 0.081 µM

Reference: publication PMC10987619, “Identification and structural characterization of small molecule inhibitors of PINK1” (Scientific Reports, 2024)
